Consider four compounds from patent publication US20150258077A1, “SUBSTITUTED B[…] FOR TREATMENT OF DEMENTIA” (P2D Inc., priority 2012, published 2015).

One experiment relates to patients with dementia. Particulars: Alzheimer's disease, frontotemporal dementia, vascular dementia; Dolder et al. review; cited from earlier work.
A further experiment deals with 3×Tg-AD mice. Nature of the experiment: Short-term memory in single alternation T-maze, 3×Tg-AD mice. It is filed as in vivo. Particulars: 10 mg/kg in saline 1 hr prior to testing, vs saline controls, p<0.001. As for the experimental part:
In this model, genes that cause Alzheimer's disease have been cloned from living Alzheimer's patients and then directly cloned into the genome of living mice to create Alzheimer mice (3×Tg-AD mice). […] (Oddo, S., et al., Triple-transgenic model of Alzheimer's disease with plaques and tangles: intracellular Abeta and synaptic dysfunction. Neuron, 2003; 39(3):409-21.)
Short-term memory was assessed in a well-accepted memory model (single alternation T-maze). In these studies, animals were administered 10 mg/kg PD2005 in saline 1 hr prior to testing and controls were administered only saline.

A further experiment concerns the target dopamine transporter (Homo sapiens, UniProt Q01959). Particulars: result in words; cited from earlier work.

Molecules are shown by their SMILES.

dopamine transporter, sequence (Q01959 whole entry): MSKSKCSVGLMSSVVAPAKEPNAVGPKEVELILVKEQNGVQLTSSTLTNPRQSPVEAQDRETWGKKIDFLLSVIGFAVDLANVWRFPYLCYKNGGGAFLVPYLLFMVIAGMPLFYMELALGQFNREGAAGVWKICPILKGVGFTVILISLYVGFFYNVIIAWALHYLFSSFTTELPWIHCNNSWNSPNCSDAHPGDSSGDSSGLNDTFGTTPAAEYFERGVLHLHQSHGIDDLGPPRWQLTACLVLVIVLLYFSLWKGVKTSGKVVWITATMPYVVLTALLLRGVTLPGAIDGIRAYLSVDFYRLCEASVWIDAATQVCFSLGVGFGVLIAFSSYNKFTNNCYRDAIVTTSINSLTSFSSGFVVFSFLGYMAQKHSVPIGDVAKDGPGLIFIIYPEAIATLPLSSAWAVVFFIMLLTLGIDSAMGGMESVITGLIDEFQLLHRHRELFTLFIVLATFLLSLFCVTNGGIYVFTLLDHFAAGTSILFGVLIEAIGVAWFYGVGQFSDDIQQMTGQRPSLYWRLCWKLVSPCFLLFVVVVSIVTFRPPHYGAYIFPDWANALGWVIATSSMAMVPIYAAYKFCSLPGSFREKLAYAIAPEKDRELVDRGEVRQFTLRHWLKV

Take `CC(N)Cc1ccccc1` (centres unmarked) [amphetamine]: the “effectiveness in patients with dementia” value in the experiment on patients with dementia is on record as “not effective”.

As for `C=CCN1C2CCC1CC(OC(c1ccc(F)cc1)c1ccc(F)cc1)C2` (stereo not drawn) [PD2005, N-allyl-4′,4″-difluoro-3α-diphenyl-methoxytropane], the improvement in memory in the experiment on 3×Tg-AD mice (first day of testing) is 140%. In addition, the memory improvement in the experiment with 3×Tg-AD mice (following day of testing) amounted to 113%.

With `CN1[C@@H]2CC[C@H]1C[C@@H](OC(c1ccccc1)c1ccccc1)C2` [benztropine], the “affinity for the dopamine transporter” value on dopamine transporter is listed as “high affinity”.

On to `COC(=O)C(c1ccccc1)C1CCCCN1` (centres unmarked) [methylphenidate], for which the “effectiveness in patients with dementia” value in the experiment on patients with dementia is listed as “not effective”.
